The nature of this assay: Inhibition of human recombinant IMPDH assessed as NADH formation by spectrophotometry.

Five compounds from ChEMBL document CHEMBL1148044, “Isorawsonol and related IMP dehydrogenase inhibitors from the tropical green alga Avrainvillea rawsonii” (J Nat Prod, 1994) can be followed below.

Take `OCc1cc(O)c(O)c(Br)c1`: the IC50 (in general, the concentration that inhibits the measured activity by half) is “Not Active”.

In the case of `COCc1cc(Br)c(O)c(O)c1Cc1ccc(O)c(Br)c1` [AVRAINVILLEOL METHYL ETHER], the IC50 entry was “Not Active”.

As to `OCc1cc(Br)c(O)c(O)c1Cc1ccc(O)c(Br)c1` [AVRAINVILLEOL], the IC50 (read-out: IC50) worked out at 18 µM.

On to `OCc1c(Cc2ccc(O)c(Br)c2)c(O)c(O)c(Br)c1Cc1cc(Br)c(O)c(O)c1Cc1ccc(O)c(Br)c1` [ISORAWSONOL], for which, where the note is “read-out: IC50”, the IC50 turned out to be 7.4 µM.

As for `COCc1cc(Br)c(O)c(O)c1Cc1cc(Br)c(O)c(Cc2cc(Br)c(O)c(O)c2Cc2ccc(O)c(Br)c2)c1` [RAWSONOL], the IC50 (read-out: IC50) is 10 µM.
